Source: ChEMBL document CHEMBL1139050, “Specific interactions with intra- and intermolecular G-quadruplex DNA structures by hydrosoluble coronene derivatives: a new class of telomerase inhibitors” (Bioorg Med Chem, 2007)

Target: Telomerase reverse transcriptase (Homo sapiens) (UniProt O14746)
Test: Inhibition of telomerase at 10 uM after 30 mins by TRAP assay

Chain of Telomerase reverse transcriptase (Homo sapiens) (O14746 whole entry): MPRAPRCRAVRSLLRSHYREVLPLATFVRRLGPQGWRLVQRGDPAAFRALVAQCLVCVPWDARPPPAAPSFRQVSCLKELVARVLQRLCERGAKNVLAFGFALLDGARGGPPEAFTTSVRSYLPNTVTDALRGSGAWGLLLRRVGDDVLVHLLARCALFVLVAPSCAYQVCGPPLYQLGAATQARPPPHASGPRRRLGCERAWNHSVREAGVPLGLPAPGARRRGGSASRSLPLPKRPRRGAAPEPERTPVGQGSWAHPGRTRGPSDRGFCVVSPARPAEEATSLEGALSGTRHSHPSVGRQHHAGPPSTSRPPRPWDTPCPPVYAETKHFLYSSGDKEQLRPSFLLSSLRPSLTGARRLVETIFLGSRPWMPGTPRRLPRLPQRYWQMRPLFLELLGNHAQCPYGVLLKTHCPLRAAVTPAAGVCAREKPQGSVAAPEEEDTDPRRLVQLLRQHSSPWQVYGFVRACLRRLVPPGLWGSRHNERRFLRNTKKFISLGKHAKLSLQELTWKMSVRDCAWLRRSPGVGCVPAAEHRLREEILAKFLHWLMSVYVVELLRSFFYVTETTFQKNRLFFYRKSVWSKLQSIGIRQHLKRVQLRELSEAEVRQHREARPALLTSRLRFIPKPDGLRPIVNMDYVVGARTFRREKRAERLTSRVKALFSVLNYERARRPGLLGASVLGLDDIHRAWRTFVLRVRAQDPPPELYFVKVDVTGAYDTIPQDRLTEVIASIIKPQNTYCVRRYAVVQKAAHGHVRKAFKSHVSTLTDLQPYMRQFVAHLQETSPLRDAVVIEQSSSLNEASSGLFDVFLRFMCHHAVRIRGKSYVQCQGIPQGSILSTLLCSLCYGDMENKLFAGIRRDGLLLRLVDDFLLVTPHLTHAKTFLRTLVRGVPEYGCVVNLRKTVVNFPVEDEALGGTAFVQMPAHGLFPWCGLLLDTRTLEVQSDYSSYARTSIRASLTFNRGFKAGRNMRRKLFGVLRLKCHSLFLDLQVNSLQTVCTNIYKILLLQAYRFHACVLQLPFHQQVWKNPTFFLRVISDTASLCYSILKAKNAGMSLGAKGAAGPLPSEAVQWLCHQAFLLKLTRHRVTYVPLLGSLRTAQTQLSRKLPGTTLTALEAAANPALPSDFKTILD

Structure (SMILES) | inhibition [%]
CN(C)CCCn1c(=O)c2cc3cc(CCN4CCN(C)CC4)c4cc5c(=O)n(CCCN(C)C)c(=O)c6cc7cc(CCN8CCN(C)CC8)c8cc(c1=O)c2c1c3c4c(c65)c7c81 | 66
CN1CCN(CCc2cc3cc4c(=O)n(CCN5CCCCC5)c(=O)c5cc6c(CCN7CCN(C)CC7)cc7cc8c(=O)n(CCN9CCCCC9)c(=O)c9cc2c2c3c(c45)c6c7c2c89)CC1 | 44
CN(C)CCCn1c(=O)c2cc3cc(CCN4CCCCC4)c4cc5c(=O)n(CCCN(C)C)c(=O)c6cc7cc(CCN8CCCCC8)c8cc(c1=O)c2c1c3c4c(c65)c7c81 | 52
O=c1c2cc3cc(CCN4CCCCC4)c4cc5c(=O)n(CCN6CCCCC6)c(=O)c6cc7cc(CCN8CCCCC8)c8cc(c(=O)n1CCN1CCCCC1)c2c1c3c4c(c65)c7c81 | 38
